Measurements taken from patent publication US20250326722A1 (SHANGHAI HANSOH BIOMEDICAL CO., LTD., priority 2022, published 2025).

Legend:
[1] = tested on: hyperlipidemia animal model of B6-hPCSK9 transgenic mice; assay: In vivo pharmacodynamics in hyperlipidemia animal model of B6-hPCSK9 transgenic mice; design: species or system B6-hPCSK9 transgenic C57 mice; conditions: PO administration, 10 mpk, Day 14, high-fat feed
Procedure: The compounds of the present disclosure were evaluated for in vivo pharmacodynamics in a hyperlipidemia animal model of B6-hPCSK9 transgenic mice.
B6-hPCSK9 transgenic C57 mice, 6-8 weeks old, male, purchased from Jiangsu GemPharmatech Co., Ltd.
After delivery to a barrier system, the animals were given one week for acclimatization and began to feed on the high-fat feed. The body weight and feed weight were weighed once a week, and the body weight and food intake thereof were recorded.
a. The animals were grouped by a random grouping method.
c. According to the grouping results, administration with the test drug was started (mode of administration: oral administration; administration volume: 10 mL/kg; frequency of administration: once/day or single administration; administration cycle: 21 days; vehicle: 10% Solutol HS 15/90% Saline).
d. After the test drug was administered, the body weight and feed weight were weighed twice a week and blood was taken once a week.
e. The data was processed with software such as Excel. […] PCSK9 in plasma was detected by ELISA.

[2] = Pharmacokinetic determination in mice (plasma); type: in vivo, C57BL/6J mice; conditions: C57 mice, PO administration, 5 mpk; for AUC(0-inf) / half-life / MRT / Cmax: male, C57BL/6J, mouse, 5 mg/kg; for AUC(0-inf): read-out: Area under the curve AUC0-∞; for half-life: read-out: Half-life t1/2 (converted); for MRT: read-out: Mean residence time MRT; for Cmax: read-out: Plasma concentration Cmax
How it was run: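 Male C57BL/6J mice (n=3 per route), fasted overnight, got 5 mg/kg PO in 10% Solutol HS15 or 1 mg/kg IV in 5% DMSO/10% Solutol HS15/85% PBS. Orbital blood was sampled at 0.083 (IV only), 0.25, 0.5, 1, 2, 4, 8 and 24 h. EDTA-K2 plasma was quantified by LC-MS/MS for PK parameters.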

Row | Time to peak tmax [2] | AUC(0-inf) [2] | half-life [2] | MRT [2] | Cmax [2] | SMILES | LDL-C change, Day 14 [1]
1 | 0.5 h | 6200 ng·h/mL | 3.1 h | 2.6 h | 2190 ng/mL | O=C1c2c(cccc2C(F)(F)F)CN1c1ccc(N[C@H]2CC[C@H](Nc3ncc(C(F)(F)F)nn3)C2)nc1 [Example 157, 7-(Trifluoromethyl)-2-(6-(((1S,3S)-3-((6-(trifluoromethyl)-1,2,4-triazin-3-yl)amino)cyclopentyl)amino)pyridin-3-yl) isoindolin-1-one] | −28.99%
2 | 1 h | 59800 ng·h/mL | 3.4 h | 4.3 h | 13500 ng/mL | Cc1cc2c(cn1)CN(c1ccc(N[C@H]3CC[C@H](Nc4ncc(C(F)(F)F)nn4)C3)nc1)C2=O [Example 148, 6-Methyl-2-(6-(((1S,3S)-3-((6-(trifluoromethyl)-1,2,4-triazin-3-yl)amino)cyclopentyl)amino)pyridin-3-yl)-2,3-dihydro-1H-pyrrolo[3,4-c]pyridin-1-one] | −24.61%
3 | 1 h | 15000 ng·h/mL | 2.8 h | 4 h | 2820 ng/mL | O=C1c2ncccc2CN1c1ccc(N[C@H]2CC[C@H](Nc3ncc(C(F)(F)F)nn3)C2)nc1 [Example 144] | −30.39%
